Broadly, the vapor or sublimation pressure is the pressure of vapour in equilibrium with the condensed phase.

The values below come from the NIST ThermoML archive (doi:10.1021/je100624p).

For the data set the following is noted: Liquid, Closed cell (Static) method.

Molecules are shown by their SMILES. ± gives the expanded uncertainty stated by the source.

For `CC(C)O` [propan-2-ol], the “vapor or sublimation pressure” value runs as follows: (303.15 K) 7.933 ± 0.28 kPa; (308.15 K) 10.72 ± 0.29 kPa.

For the compound `O` [water], the “vapor or sublimation pressure” value is given as 4.186 ± 0.27 kPa (303.15 K), 5.493 ± 0.27 kPa (308.15 K), 7.346 ± 0.27 kPa (313.15 K) and 9.493 ± 0.27 kPa (318.15 K).

Take `CCO` [ethanol]: the “vapor or sublimation pressure” value reads like this: (303.15 K) 10.43 ± 0.29 kPa; (313.15 K) 17.84 ± 0.32 kPa.
